Earlier results in patent publication US20050065183A1 (priority 2003, published 2005).

System: muscarinic

In the case of `CC(C)(C(=O)O)c1ccc(C(O)CCCN2CCC(C(O)(c3ccccc3)c3ccccc3)CC2)cc1` (stereo not drawn) [Fexofenadine, 4-[4-[4-(hydroxydiphenylmethyl)-1-piperidinyl]-1-hydroxybutyl]-α,α-dimethylbenzeneacetic acid], the antimuscarinic activity is listed as “weak”.
